The values that follow come from publication PMC9469100, “Turning Nonselective Inhibitors of Type I Protein Arginine Methyltransferases into Potent and Selective Inhibitors of Protein Arginine Methyltransferase 4 through a Deconstruction–Reconstruction and Fragment-Growing Approach” (Journal of Medicinal Chemistry, 2022).

Each structure is given as a SMILES string. Like-named read-outs stand apart in the source and are kept apart here.

The target of data set [1] is T1, PRMT7 (Homo sapiens, UniProt Q9NVM4).
T1 sequence (Q9NVM4 2-692): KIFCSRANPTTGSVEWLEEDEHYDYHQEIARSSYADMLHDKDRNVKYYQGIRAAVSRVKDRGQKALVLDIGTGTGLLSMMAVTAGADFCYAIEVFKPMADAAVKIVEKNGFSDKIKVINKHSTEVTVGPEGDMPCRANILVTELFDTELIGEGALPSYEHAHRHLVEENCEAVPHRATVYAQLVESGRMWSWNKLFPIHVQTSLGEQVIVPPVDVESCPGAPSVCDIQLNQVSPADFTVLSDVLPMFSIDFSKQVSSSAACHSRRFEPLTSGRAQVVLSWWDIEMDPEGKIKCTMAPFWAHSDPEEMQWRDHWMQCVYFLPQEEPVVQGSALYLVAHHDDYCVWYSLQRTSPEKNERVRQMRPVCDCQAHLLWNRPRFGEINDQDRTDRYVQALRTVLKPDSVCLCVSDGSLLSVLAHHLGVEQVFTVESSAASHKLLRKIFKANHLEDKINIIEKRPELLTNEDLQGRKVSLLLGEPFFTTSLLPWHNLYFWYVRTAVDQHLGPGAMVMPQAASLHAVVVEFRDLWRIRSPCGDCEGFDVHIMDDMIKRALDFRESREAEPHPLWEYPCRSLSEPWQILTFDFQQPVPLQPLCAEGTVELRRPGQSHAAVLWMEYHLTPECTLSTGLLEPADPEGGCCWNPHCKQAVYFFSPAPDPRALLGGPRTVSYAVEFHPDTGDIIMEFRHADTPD
The data set can be described thus: Radioisotope-based filter-binding (HotSpot) assay, PRMT7. The note with it: read-out: IC50 (μM) PRMT7; radioisotope-based filter assay; 5 μM GST-GAR; 1 μM 3H-SAM.
Protocol: (§1) Then, ^3H-SAM (final concentration 1 μM) was delivered into the reaction mixture to initiate the reaction. After incubation for 60 min at 30 °C, the reaction mixture was delivered to filter paper for detection (as assessed by scintillation). Data were analyzed using Excel and GraphPad Prism 6.0 software (GraphPad Software Inc., San Diego, CA) for IC50 curve fits using sigmoidal dose vs response-variable slope (four parameters) equations.

A short description of data set [2]: Parallel artificial membrane permeability assay (PAMPA). The class given is in vitro ADME. The note with it: phosphate buffer pH 7.4, donor 0.2 mM, 24 h at room temperature. As to the method: A donor solution (0.2 mM) was prepared by diluting 20 mM dimethyl sulfoxide (DMSO) compound stock solution using phosphate buffer (pH 7.4, 0.01 M). Filters were coated with 5 μL of a 1% (w/v) dodecane solution of L-α-phosphatidylcholine. Donor solution (150 μL) was added to each well of the filter plate. To each well of the acceptor plate, 300 μL of solution (5% DMSO in phosphate buffer) was added. […] The sandwich was incubated for 24 h at room temperature under gentle shaking. After the incubation time, the sandwich plates were separated, and 250 μL of the acceptor plate was transferred to a UV quartz microtiter plate and measured by UV spectroscopy, using a Multiskan GO microplate spectrophotometer (Thermo Fisher Scientific) at 250–500 nm at a step of 5 nm. Reference solutions (250 μL) were prepared diluting the sample stock solutions to the same concentration as that with no membrane barrier.
In general terms: The PAMPA barrier holds no transporters, so it reflects passive diffusion.

In data set [3] the target is PRMT3 (Homo sapiens, UniProt O60678). Put plainly: Radioisotope-based filter-binding (HotSpot) assay, PRMT3. The note with it: radioisotope-based filter assay.
Protocol: as §1
The target of data set [4] is PRMT6 (Homo sapiens, UniProt Q96LA8). The data set can be described thus: Radioisotope-based filter-binding (HotSpot) assay, PRMT6. The note with it: radioisotope-based filter assay.
Protocol: as §1
Data set [5] deals with ΔN(1–60)-PRMT8 (Homo sapiens, UniProt Q9NR22). Put plainly: Radioisotope-based filter-binding (HotSpot) assay, PRMT8.
Protocol: as §1
The target of data set [6] is T2, PRMT4 (Homo sapiens, UniProt Q86X55).
T2 sequence (Q86X55 2-608): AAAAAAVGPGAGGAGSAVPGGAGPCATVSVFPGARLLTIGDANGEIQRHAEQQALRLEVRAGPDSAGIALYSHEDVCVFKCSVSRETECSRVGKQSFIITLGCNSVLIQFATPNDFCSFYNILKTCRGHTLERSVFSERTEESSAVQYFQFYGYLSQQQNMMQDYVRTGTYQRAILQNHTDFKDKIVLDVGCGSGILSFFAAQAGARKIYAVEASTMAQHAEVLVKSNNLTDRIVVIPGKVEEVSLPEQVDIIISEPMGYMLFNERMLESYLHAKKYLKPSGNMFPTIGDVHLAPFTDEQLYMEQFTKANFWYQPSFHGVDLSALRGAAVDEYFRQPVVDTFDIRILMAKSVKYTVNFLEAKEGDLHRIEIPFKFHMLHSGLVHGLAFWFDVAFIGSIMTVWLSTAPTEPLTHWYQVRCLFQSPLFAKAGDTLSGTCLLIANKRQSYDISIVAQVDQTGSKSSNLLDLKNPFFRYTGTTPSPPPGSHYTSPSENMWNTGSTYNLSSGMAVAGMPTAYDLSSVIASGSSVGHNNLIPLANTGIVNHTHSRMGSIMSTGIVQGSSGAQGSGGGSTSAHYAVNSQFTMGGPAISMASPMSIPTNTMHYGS
The data set can be described thus: Radioisotope-based filter-binding (HotSpot) assay, PRMT4. To be noted: for LE: ligand efficiency for PRMT4 calculated from IC50 as a surrogate for KD; for selectivity index for PRMT4 vs other PRMTs: PRMT1: ratio IC50 PRMT1 / IC50 PRMT4, rounded to nearest integer; for selectivity index for PRMT4 vs other PRMTs: PRMT3: ratio IC50 PRMT3 / IC50 PRMT4; for selectivity index for PRMT4 vs other PRMTs: PRMT5: ratio IC50 PRMT5 / IC50 PRMT4; for selectivity index for PRMT4 vs other PRMTs: PRMT6: ratio IC50 PRMT6 / IC50 PRMT4; for selectivity index for PRMT4 vs other PRMTs: PRMT7: ratio IC50 PRMT7 / IC50 PRMT4; for selectivity index for PRMT4 vs other PRMTs: PRMT8: ratio IC50 PRMT8 / IC50 PRMT4; for IC50: radioisotope-based filter assay; for SI PRMT1 (Figure 5 heatmap): selectivity index for PRMT4 over PRMT1; for SI PRMT3 (Figure 5 heatmap): selectivity index for PRMT4 over PRMT3; for SI PRMT6 (Figure 5 heatmap): selectivity index for PRMT4 over PRMT6; for SI PRMT7 (Figure 5 heatmap): selectivity index for PRMT4 over PRMT7; for SI PRMT8 (Figure 5 heatmap): selectivity index for PRMT4 over PRMT8.
Protocol: as §1

Data set [7] concerns the target PRMT1 (Homo sapiens, UniProt Q99873). Put plainly: Radioisotope-based filter-binding (HotSpot) assay, PRMT1. To be noted: radioisotope-based filter assay.
Protocol: as §1
Where [8] appears, read: read-out: IC50 (μM) PRMT3, 5 μM histone H4, 1 μM 3H-SAM.
Setting [9] is: read-out: IC50 PRMT3 (Figure 5 heatmap).
The mark [10] stands for this setting: read-out: IC50 (μM) PRMT6, 5 μM GST-GAR, 1 μM 3H-SAM.
Where [11] appears, read: read-out: IC50 PRMT6 (Figure 5 heatmap).
Where [12] appears, read: read-out: IC50 (μM) PRMT8, 5 μM histone H4, 1 μM 3H-SAM.
Where [13] appears, read: read-out: IC50 PRMT8 (Figure 5 heatmap).
[14] abbreviates: read-out: IC50 (μM) PRMT4, 5 μM histone H3, 1 μM 3H-SAM.
Where [15] appears, read: read-out: IC50 PRMT4 (Figure 5 heatmap).
Setting [16] is: read-out: IC50 (μM) PRMT1, 5 μM histone H4, 1 μM 3H-SAM.
Setting [17] is: read-out: IC50 PRMT1 (Figure 5 heatmap).

ΔN(1–60)-PRMT8, sequence (Q9NR22 61-394, stated change not applied): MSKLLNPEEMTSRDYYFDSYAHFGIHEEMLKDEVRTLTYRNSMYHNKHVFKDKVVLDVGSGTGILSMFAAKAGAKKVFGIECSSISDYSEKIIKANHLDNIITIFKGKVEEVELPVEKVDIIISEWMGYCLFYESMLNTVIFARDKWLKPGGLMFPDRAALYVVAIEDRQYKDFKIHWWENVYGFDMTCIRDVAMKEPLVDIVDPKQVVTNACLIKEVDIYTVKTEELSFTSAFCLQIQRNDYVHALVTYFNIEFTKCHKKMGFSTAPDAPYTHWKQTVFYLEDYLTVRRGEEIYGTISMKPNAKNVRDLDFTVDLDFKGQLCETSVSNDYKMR
PRMT1, sequence (Q99873 2-371): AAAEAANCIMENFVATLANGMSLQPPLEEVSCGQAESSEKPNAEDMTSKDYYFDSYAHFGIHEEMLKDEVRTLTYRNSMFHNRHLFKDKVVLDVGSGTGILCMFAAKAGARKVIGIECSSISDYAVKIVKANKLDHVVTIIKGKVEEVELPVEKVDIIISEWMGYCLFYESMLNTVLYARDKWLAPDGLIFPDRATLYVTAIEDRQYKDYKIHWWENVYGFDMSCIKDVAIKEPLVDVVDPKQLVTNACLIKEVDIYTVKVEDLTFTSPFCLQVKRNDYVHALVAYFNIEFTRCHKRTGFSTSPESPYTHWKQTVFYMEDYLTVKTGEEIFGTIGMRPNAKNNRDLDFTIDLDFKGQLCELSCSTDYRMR
PRMT6, sequence (Q96LA8 2-375): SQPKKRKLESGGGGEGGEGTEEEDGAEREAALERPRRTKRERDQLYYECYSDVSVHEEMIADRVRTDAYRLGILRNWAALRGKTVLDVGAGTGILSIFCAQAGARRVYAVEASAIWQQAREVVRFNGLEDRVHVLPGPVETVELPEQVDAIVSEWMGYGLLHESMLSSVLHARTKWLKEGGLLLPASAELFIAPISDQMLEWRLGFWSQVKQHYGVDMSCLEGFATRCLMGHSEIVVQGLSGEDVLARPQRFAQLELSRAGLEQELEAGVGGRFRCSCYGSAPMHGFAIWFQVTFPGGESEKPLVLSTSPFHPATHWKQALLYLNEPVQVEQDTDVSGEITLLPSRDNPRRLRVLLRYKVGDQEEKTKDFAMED
PRMT3, sequence (O60678 2-531): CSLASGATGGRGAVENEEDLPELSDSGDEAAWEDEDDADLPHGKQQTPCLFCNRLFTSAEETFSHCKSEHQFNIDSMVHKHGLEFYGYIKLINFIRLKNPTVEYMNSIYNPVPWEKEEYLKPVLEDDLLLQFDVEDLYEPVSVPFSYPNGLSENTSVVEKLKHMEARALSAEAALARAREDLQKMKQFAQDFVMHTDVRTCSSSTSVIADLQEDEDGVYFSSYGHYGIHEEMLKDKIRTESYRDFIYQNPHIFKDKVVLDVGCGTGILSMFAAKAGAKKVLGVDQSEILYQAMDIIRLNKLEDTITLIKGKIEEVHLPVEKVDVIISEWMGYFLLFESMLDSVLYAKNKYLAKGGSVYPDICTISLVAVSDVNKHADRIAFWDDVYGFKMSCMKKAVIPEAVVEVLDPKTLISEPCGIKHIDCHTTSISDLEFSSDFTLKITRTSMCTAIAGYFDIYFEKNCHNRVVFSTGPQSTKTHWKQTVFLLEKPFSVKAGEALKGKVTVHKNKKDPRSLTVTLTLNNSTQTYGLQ

As a reminder, the IC50 is the concentration that inhibits the measured activity by half. The Papp is a coefficient for how fast a substance crosses the barrier. A high value points to fast passage. Consider `COC(=O)c1cc(O)c2cc(NC(=O)NCCCCNC(=N)NCCC[C@H]3O[C@@H](n4cnc5c(N)ncnc54)[C@H](O)[C@@H]3O)ccc2c1` [12g, Methyl 6-(3-(4-(3-(3-((2R,3S,4R,5R)-5-(6-Amino-9H-purin-9-yl)-3,4-dihydroxytetrahydrofuran-2-yl)propyl)guanidino)butyl)ureido)-4-hydroxy-2-naphthoate], for which the IC50 in data set [1] was found to be 4.68 µM. The compound also yielded a Papp at 24 h, 0.2 mM in data set [2] of 0.039 ×10⁻⁶ cm/s. In data set [3] (setting [8]), the IC50 turned out to be 13.3 µM. Moreover, the IC50 in data set [3] (setting [9]) was determined as 13.2 µM. Further, the IC50 in data set [4] (setting [10]) amounted to 4.34 µM. Moreover, the IC50 in data set [4] (setting [11]) was 4.34 µM. Also, the IC50 in data set [5] (setting [12]) was 1.41 µM. Further, the IC50 in data set [5] (setting [13]) was determined as 1.41 µM. Further, in data set [6], the LE is given as 0.24, the “selectivity index for PRMT4 vs other PRMTs: PRMT1” value was 214, the “selectivity index for PRMT4 vs other PRMTs: PRMT3” value worked out at 1583 and the “selectivity index for PRMT4 vs other PRMTs: PRMT5” value was 93. In addition, in data set [6], the “selectivity index for PRMT4 vs other PRMTs: PRMT6” value stood at 517, the “selectivity index for PRMT4 vs other PRMTs: PRMT7” value amounted to 557, the “selectivity index for PRMT4 vs other PRMTs: PRMT8” value was 168 and the “SI PRMT1 (Figure 5 heatmap)” value came to 214 fold. In data set [6], the “SI PRMT3 (Figure 5 heatmap)” value was 1,583 fold, the “SI PRMT6 (Figure 5 heatmap)” value is 517 fold, the “SI PRMT7 (Figure 5 heatmap)” value was found to be 557 fold and the “SI PRMT8 (Figure 5 heatmap)” value worked out at 168 fold. For the same compound, the IC50 in data set [6] (setting [14]) turned out to be 0.0084 µM. Besides, the 50% inhibitory concentration (IC50) in data set [6] (setting [15]) was determined as 0.008 µM. For the same compound, the “SI PRMT5 (Figure 5 heatmap)” value in data set [6] (selectivity index for PRMT4 over PRMT5) stood at 93 fold. Also, in data set [7] (setting [16]), the IC50 is 1.8 µM. The 50% inhibitory concentration (IC50) in data set [7] (setting [17]) turned out to be 1.79 µM.

Take `COC(=O)c1cc(O)c2cc(NC(=O)NCCCCNC(=N)NC/C=C/[C@H]3O[C@@H](n4cnc5c(N)ncnc54)[C@H](O)[C@@H]3O)ccc2c1` [12h, Methyl 6-(3-(4-(3-((E)-3-((2R,3S,4R,5R)-5-(6-Amino-9H-purin-9-yl)-3,4-dihydroxytetrahydrofuran-2-yl)allyl)guanidino)butyl)ureido)-4-hydroxy-2-naphthoate]: the IC50 in data set [1] was 1.68 µM; in data set [3] (setting [8]), 4.05 µM; in data set [3] (setting [9]), 4.04 µM; in data set [4] (setting [10]) it was 1.75 µM; in data set [4] (setting [11]) it was 1.75 µM; in data set [5] (setting [12]), 1.95 µM. The IC50 in data set [5] (setting [13]) came to 1.95 µM; in data set [6] (IC50 PRMT4 (Figure 5 heatmap)), 0.003 µM; in data set [6] (setting [14]) it was 0.0032 µM. In data set [2], this compound gave a Papp at 24 h, 0.2 mM of 0.038 ×10⁻⁶ cm/s. In addition, the “gain in potency over its shorter counterpart 12b” value in data set [6] (PRMT4) came out at 668 fold.

On to `COC(=O)c1cc(O)c2cc(NC(=O)NCCCCNC(=N)NCC[C@H]3O[C@@H](n4cnc5c(N)ncnc54)[C@H](O)[C@@H]3O)ccc2c1` [12f, Methyl 6-(3-(4-(3-(2-((2R,3S,4R,5R)-5-(6-Amino-9H-purin-9-yl)-3,4-dihydroxytetrahydrofuran-2-yl)ethyl)guanidino)butyl)ureido)-4-hydroxy-2-naphthoate], for which the IC50 in data set [1] worked out at 0.226 µM. The Papp at 24 h, 0.2 mM in data set [2] was 0.055 ×10⁻⁶ cm/s. Further, the IC50 in data set [3] (setting [8]) worked out at 10.5 µM. The IC50 in data set [3] (setting [9]) is 10.5 µM. Besides, the IC50 in data set [4] (setting [10]) was found to be 22.7 µM. Further, the IC50 in data set [4] (setting [11]) is 22.7 µM. Moreover, the IC50 in data set [5] (setting [12]) amounted to 6 µM. The IC50 in data set [5] (setting [13]) came out at 6 µM. For the same compound, in data set [6], the LE is reported as 0.24, the “selectivity index for PRMT4 vs other PRMTs: PRMT1” value turned out to be 501, the “selectivity index for PRMT4 vs other PRMTs: PRMT3” value came to 1082 and the “selectivity index for PRMT4 vs other PRMTs: PRMT5” value worked out at 12. Besides, in data set [6], the “selectivity index for PRMT4 vs other PRMTs: PRMT6” value worked out at 2340, the “selectivity index for PRMT4 vs other PRMTs: PRMT7” value is 23, the “selectivity index for PRMT4 vs other PRMTs: PRMT8” value is recorded as 619 and the “SI PRMT1 (Figure 5 heatmap)” value stood at 501 fold. Besides, in data set [6], the “SI PRMT3 (Figure 5 heatmap)” value is 1,082 fold, the “SI PRMT6 (Figure 5 heatmap)” value is on record as 2,340 fold, the “SI PRMT7 (Figure 5 heatmap)” value turned out to be 23 fold and the “SI PRMT8 (Figure 5 heatmap)” value was 619 fold. Moreover, the IC50 in data set [6] (setting [14]) was 0.0097 µM. Moreover, the IC50 in data set [6] (setting [15]) was 0.01 µM. In data set [7] (setting [16]), the IC50 stood at 4.86 µM. Further, the IC50 in data set [7] (setting [17]) worked out at 4.86 µM.
